Source: US12233060B2, “Inhibitors of Ataxia-Telangiectasia Mutated and Rad3-related protein kinase (ATR) for use in methods of treating cancer” (THE INSTITUTE OF CANCER RESEARCH: ROYAL CANCER HOSPITAL, priority 2016, dated 2025)

How the values were obtained:
Format in all cases: cell-based, human
SYO1 cells = assay: FACS cell cycle and Caspase Glo apoptosis in SYO1 cells
Experimental: FIG. 10. ATR inhibitors elicit replication fork stress in SS tumour cells. […] Error bars represent SEM from triplicate experiments. p values were derived from Student's t tests. B. Western blot illustrating PARP1 cleavage in SYO1 cells exposed to VX970 for 24 hours. C. Western blot illustrating H2AX phosphorylation (γH2AX) in SYO1 cells exposed to VX970 (0.1 μM). D. Confocal microspcopy images illustrating H2AX phosphorylation in SYO1 cells exposed to VX970 (0.1 μM, 24 hours). E. Bar chart depicting data from (D). Error bars represent SEM from 100 images. p values were derived from Student's t tests. F. Replication fork speeds in SYO1 cells exposed to 0.1 μM VX970 for two hours. p value was derived from a Student's t test. G. Replication fork speeds in HCT116 cells exposed to 0.1 μM VX970 for two hours in the presence and absence of ectopic expression of a SS18-SSX1 fusion protein. p values were derived from Student's t tests. Expression of SS18-SSX1 or exposure to VX970 reduced fork speed. Combined SS18-SSX1 expression and VX970 exposure enhanced the reduction in fork speed. H and I. FACS plots from SYO1 cells exposed to VX970.

[1] = test system: ARID1A mutant vs ARID1A wild type tumor cell lines; assay: Five-day VX-970 sensitivity (AUC) in a diverse tumour cell line panel; conditions: five days exposure, Student's t-test
Experimental: FIG. 2. In vitro ARID1A/ATR synthetic lethality. A. Chemical structure of VX-970. B. Western blot of ARID1A in human ARID1A isogenic HCT116 cells. C. Image of colonies in 6 well-plate clonogenic assay. HCT116 ARID1A isogenic (^+/+ and ^−/−) cell lines were exposed to increasing concentrations of the VE-821 (0, 0.1, 1 uM) and VX-970 (0, 0.01, 0.05 uM) for 14 days. D and E. Dose response clonogenic survival curve of HCT116 ARID1A isogenic (^+/+ and ^−/−) cell lines exposed to increasing concentrations of the VE-821 and VX-970 for 14 days. Error bars represent SD from triplicate experiments, ANOVA p-value of <0.0001. F. Area under curve (AUC) box whisker comparison plot for human tumor cell lines exposed to VX-970 for five days. ARID1A wild type tumor cell lines (n=15) were compared to ARID1A mutant cell lines (n=9). Student's t-test p=0.00594. G. Dose response clonogenic survival curve of mouse Arid1a isogenic ES cell lines. Experiment was performed as per (C). Error bars represent SD from triplicate experiments, ANOVA p value of <0.0001. H. Western blot of Arid1a protein expression in mouse ES Arid1a isogenic cells. […]
(§1) Short-term survival assays were performed in 384-well plates. […] Drug was added 24 h after seeding and cells were continuously exposed to the drug for five days, after which cell viability was estimated using CellTitre-Glo luminescence (Promega). […] Colonies were counted manually. […]

HCC1143 cells = assay: 384 well plate cell survival after ARID1A siRNA transfection; conditions: ARID1A siRNA vs control, five continuous days exposure
Excerpt: FIG. 1. […] A. Structure of VE-821 and schematic describing workflow for parallel VE-821 chemosensitisation screens in MCF12A and HCC1143 cells. B. Scatter plots of VE-821 Drug Effect (DE) Z-scores from all 1280 siRNAs used in the in the chemosensitisation screens. The DE Z-score threshold of −2 (red line) was used for defining candidate synthetic lethal interactions is shown. C. Venn diagram of DE<−2 VE-821 sensitisation hits in MCF12A and HCC1143 cells. Numbers shown indicate number of sensitisation genes. Amongst the 30 genes with DE Z-scores <−2 in both cell lines, seven well-established tumour suppressor genes were identified. D. Bar charts illustrating DE Z-scores for control, non-targeting, siRNAs (siALLSTAR, siCON1, siCON2) and ARID1A siRNAs in the chemosensitisation screens. Values shown are median from triplicate screens and error bars represent SD. […]
A siRNA library was purchased from Dharmacon. […] RNAi screening conditions were optimised and raw CellTitre-Glo (Promega) luminescent viability readings were generated as previously described21. […]
as §1

CNCc1ccc(-c2cc(-c3nc(-c4ccc(S(=O)(=O)C(C)C)cc4)cnc3N)on2)cc1 [VX-970, 5-[4-(Isopropylsulfonyl)phenyl]-3-(3-{4-[(methylamino)methyl]phenyl}-1,2-oxazol-5-yl)-2-pyrazinamine]
sub G1 fraction (SYO1 cells; 0.1 μM): increase in the sub G1 fraction
cell cycle, S phase (SYO1 cells; SS tumour cells exposed to VX970 (0.1 μM)): arrest in S phase
apoptosis (Caspase Glo) (SYO1 cells; SYO1 cells): apoptosis, estimated by Caspase Glo, caused by exposure
sensitivity of ARID1A mutant (n=9) vs non-mutant (n=15) tumour cell lines [1]: significantly more sensitive to VX-970
ATRi sensitivity caused by ARID1A siRNA (HCC1143 cells): caused sensitivity
